Measurements as given in US20150110853A1, “TREATMENT OF RADICAL PROSTATECTOMY-INDUCED ERECTILE DYSFUNCTION” (PANACEA PHARMACEUTICALS, priority 2013, published 2015).

Columns and labels:
cultured neuronal cells = format: cell-based
Procedure: (§1) PAN-811 was originally developed for cancer therapy due to its ability to inhibit ribonucleotide reductase, a key enzyme required for DNA synthesis. […] PAN-811 was administered intracerebroventricularly (i.c.v.) at a dose of 50 μg per rat at 1 h after arterial occlusion. […] The effect of a single intravenous (i. v.) bolus injection of PAN-811 was also investigated. […] Mechanistically PAN-811 prevents glutamate-induced excitatory cytotoxicity, veratridine-induced sodium channel opening and related cell death, and staurosporine-induced apoptosis. […] In culture, ischemic condition results in a 19-fold increase in intracellular free calcium. PAN-811 at a dose of 5 μM reduced this elevated level by 72%. […] In addition, PAN-811 effectively suppresses oxidative stress in many ways. […] Importantly, PAN-811 manifested as a free radical scavenger in a cell free system where PAN-811 reduced 500 μM of a stable free radical diphenylpicrylhydrazyl by 70%. Taken together, PAN-811 has manifested as a potent neuroprotectant with dual drug targets—oxidative stress and free calcium.

[1] = system: veratridine-induced sodium channel opening; test: veratridine-induced sodium channel opening and related cell death; format: cell-based
Procedure: as §1

[2] = system: staurosporine-induced apoptosis; test: staurosporine-induced apoptosis; format: cell-based
Procedure: as §1

[3] = system: human Alzheimer's disease-derived and age-matched olfactory neuroepithelial cells; test: oxidative stress-induced cell death of olfactory neuroepithelial cells; format: cell-based; details: via suppression of intracellular reactive oxygen species
Procedure: as §1

[4] = system: ischemic neurodegeneration; details: 0.45 μM; cited from earlier work
[5] = system: hypoxia-induced neuronal cell death; details: 1.2μM; cited from earlier work
ribonucleotide reductase = target: T1, ribonucleotide reductase (Homo sapiens, UniProt P31350); details: cited from earlier work
T1 sequence (P31350 1-389): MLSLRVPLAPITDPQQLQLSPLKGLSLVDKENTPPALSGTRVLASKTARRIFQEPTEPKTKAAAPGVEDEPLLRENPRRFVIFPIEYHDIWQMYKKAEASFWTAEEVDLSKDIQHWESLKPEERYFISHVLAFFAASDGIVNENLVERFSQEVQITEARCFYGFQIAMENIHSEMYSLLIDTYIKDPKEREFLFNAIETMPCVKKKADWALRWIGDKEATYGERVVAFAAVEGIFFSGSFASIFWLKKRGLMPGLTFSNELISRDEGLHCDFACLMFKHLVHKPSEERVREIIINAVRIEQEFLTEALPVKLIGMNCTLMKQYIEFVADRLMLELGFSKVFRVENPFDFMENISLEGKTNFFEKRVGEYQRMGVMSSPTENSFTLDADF
T1 sequence (P23921 1-792 partner): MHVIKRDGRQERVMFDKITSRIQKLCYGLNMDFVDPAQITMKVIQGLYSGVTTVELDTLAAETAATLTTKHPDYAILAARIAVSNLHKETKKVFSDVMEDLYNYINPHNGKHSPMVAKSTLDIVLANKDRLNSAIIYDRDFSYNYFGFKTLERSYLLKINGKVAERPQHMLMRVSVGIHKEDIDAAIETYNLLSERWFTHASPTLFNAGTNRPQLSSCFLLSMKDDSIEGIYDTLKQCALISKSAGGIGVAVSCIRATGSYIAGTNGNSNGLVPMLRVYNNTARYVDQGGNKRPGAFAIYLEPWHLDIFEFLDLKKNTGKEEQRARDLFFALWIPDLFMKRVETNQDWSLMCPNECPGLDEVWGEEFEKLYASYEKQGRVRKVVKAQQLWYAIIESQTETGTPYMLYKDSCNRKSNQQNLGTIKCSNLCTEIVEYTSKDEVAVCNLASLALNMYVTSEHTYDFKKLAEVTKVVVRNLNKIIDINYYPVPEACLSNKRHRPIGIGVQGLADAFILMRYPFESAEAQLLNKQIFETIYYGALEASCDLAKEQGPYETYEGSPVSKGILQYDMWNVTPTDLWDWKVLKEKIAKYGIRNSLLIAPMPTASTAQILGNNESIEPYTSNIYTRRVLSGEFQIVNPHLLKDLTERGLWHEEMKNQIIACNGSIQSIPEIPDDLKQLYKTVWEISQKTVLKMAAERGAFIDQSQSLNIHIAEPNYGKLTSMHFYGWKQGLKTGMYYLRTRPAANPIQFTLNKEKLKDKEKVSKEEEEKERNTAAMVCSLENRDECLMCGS

## NC(=S)N/N=C/c1ncccc1N [PAN-811, 3-aminopyridine-2-carboxaldehyde thiosemicarbazone]
Cultured neuronal cells
  prevention of glutamate-induced excitatory cytotoxicity: prevents
[1]
  prevention of veratridine-induced sodium channel opening and related cell death: prevents
[2]
  prevention of staurosporine-induced apoptosis: prevents
[3]
  inhibition of oxidative stress-induced cell death: inhibited
[4]
  block of ischemic neurodegeneration: fully blocked
[5]
  halt of hypoxia-induced neuronal cell death: completely halted
Ribonucleotide reductase
  inhibition of ribonucleotide reductase: inhibit
